Measurements as given in publication PMC11602245 (Journal of Peptide Science, 2024).
Each block holds one compound with its values, some of them ahead of it. Starred links: 1 amine or outer side, 2 acyl side, 3 side chain; linkers in the order of their positions; H or OH if unused. Positions of bridges follow the written chain, without caps; N, C: chain ends. Non-standard residues stand in square brackets, D forms with d. Residues, ends and D or L forms follow the SMILES beside them. *: point of attachment. X1 = NC(=O)C[C@H](N[*:1])c1cn([C@@H](Cc2ccccc2)C(=O)[*:2])nn1; DOTA = O=C(O)CN1CCN(CC(=O)O)CCN(CC(=O)*)CCN(CC(=O)O)CC1; NMeF = CN[C@@H](Cc1ccccc1)C(=O)O

What was measured:
human plasma = details: 37°C, up to 24 h
[1] = Metabolic stability in human plasma; assay type: in vitro ADME
Description: The human plasma used in the in vitro stability assays was purchased from Sigma‐Aldrich (H4522‐20ML).
The stability assays were conducted by incubating the ^111In‐labeled peptide conjugates in human plasma at 37°C for 24 h (n = 2). The detailed description of the procedure is described elsewhere.[13]
In order to assess the proteolytic stability of the new radiolabeled peptide conjugates, in vitro stability studies were conducted in blood plasma. [^111In]In‐XG1 and [^111In]In‐XG1‐A/B/C were incubated in human plasma at 37°C, and samples were taken after 24 h for their analysis by γ‐HPLC (Figure 3). […] This hypothesis is also supported by previously reported data that identified Thr^10‐Phe^11 as one of the main cleavage sites of the native SST‐14.[15] […] To better understand the degradation of [^111In]In‐XG1‐C over time, the stability was also determined after 4 h incubation in plasma (Figure 3D), after which only 27% of the original radiopeptide remained intact. […] We hypothesize that the incorporation of the methylated amino acid (N‐Me‐Phe^11) leads to a conformation of the peptide that facilitates the accessibility of amide bonds to proteases. Similar observations have been reported for other triazolo‐peptidomimetics.[11] […] For example, one of the main enzymes involved in the degradation of the native SST‐14 is neprilysin (NEP), a membrane‐bound metalloprotease abundantly expressed in various tissues.[21], [22] The role of this enzyme in the degradation of peptides cannot be contemplated with in vitro plasma stability assays but would have to be assessed in vivo (e.g., mice).[23]

[2] = target: T1, SST2R‐overexpressing AR42J cells (Rattus norvegicus, UniProt P30680); experiment: Cell binding and internalization studies; assay type: cell-based; details: after 2 h, corresponds to the determined unspecific binding (blocking experiments)
T1 construct: incubating the ^111In‐labeled peptide conjugates with SST2R‐overexpressing AR42J cells in six well plates; host or cells: AR42J cells
Description: The AR42J cell line was purchased from the American Type Culture Collection (ATCC).
The cell binding and internalization assays were performed by incubating the ^111In‐labeled peptide conjugates with SST2R‐overexpressing AR42J cells in six well plates as previously described (n = 2–3 in triplicates).[13]
The binding of radiolabeled somatostatin derivatives to multiple SSTRs is of high interest because it allows to address a wide range of cancers with distinctive SSTR‐subtype expression patterns.[24] Yet, SST2R is of major medical importance because it is over‐expressed or co‐expressed by most cancer types (e.g., NETs).[25] Thus, we first focused on SST2R by conducting cell binding and internalization experiments with the SST2R‐expressing cell line AR42J. In order to determine the specificity of the binding and internalization of the radiolabeled peptides, the octapeptide TATE (DPhe^1‐cycle(Cys^2‐Phe^3‐DTrp^4‐Lys^5‐Thr^6‐Cys^7)Thr^8) was used in excess for blocking experiments. […] These values are in accordance with previously reported data.[13] […] From the total applied activity, <1% was found at the cell membrane and internalized, which corresponds to the determined unspecific binding (blocking experiments). See Figure S9 for the results of the binding and internalization studies. […]

[3] = cited from earlier work

T1 sequence (P30680 whole entry): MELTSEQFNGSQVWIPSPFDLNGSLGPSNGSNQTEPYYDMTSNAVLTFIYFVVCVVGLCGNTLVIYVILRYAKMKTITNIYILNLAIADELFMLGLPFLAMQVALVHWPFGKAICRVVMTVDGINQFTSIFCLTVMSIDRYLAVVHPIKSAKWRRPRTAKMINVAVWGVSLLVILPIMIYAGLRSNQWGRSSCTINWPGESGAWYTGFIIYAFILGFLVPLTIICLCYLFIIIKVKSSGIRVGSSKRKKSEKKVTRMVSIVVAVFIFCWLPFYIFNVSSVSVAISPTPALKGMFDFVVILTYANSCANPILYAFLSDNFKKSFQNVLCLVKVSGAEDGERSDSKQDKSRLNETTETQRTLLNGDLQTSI

Compound: [DOTA,Asn^5‐Ψ[Tz]‐Phe^6,DTrp^8,Thr^10‐Ψ[NH]‐Phe^11]SST‐14
not cleaved (human plasma): more than 97% of intact peptide after 24 h

Compound: C[C@H](NC(=O)CN1CCN(CC(=O)O)CCN(CC(=O)O)CCN(CC(=O)O)CC1)C(=O)NCC(=O)N[C@H]1CSSC[C@@H](C(=O)O)NC(=O)[C@H](CO)NC(=O)[C@H]([C@@H](C)O)NC(=O)[C@H](Cc2ccccc2)NC(=O)[C@H]([C@@H](C)O)NC(=O)[C@H](CCCCN)NC(=O)[C@@H](Cc2c[nH]c3ccccc23)NC(=O)[C@H](Cc2ccccc2)NC(=O)[C@H](Cc2ccccc2)n2cc(nn2)[C@H](CC(N)=O)NC(=O)[C@H](CCCCN)NC1=O [[^111In]In‐XG1, [DOTA,Asn^5‐Ψ[Tz]‐Phe^6,DTrp^8]SST‐14, metal not drawn] ({DOTA}-AGCK[X1]F[dW]KTFTSC-OH; disulfide 3-13)
major radiometabolite at rt = 6.4 min [1]: 35.3% | remaining at 24 h ([1]; human, plasma): 56%

Compound: [DOTA,Asn^5‐Ψ[Tz]‐Phe^6,DTrp^8,β‐Phe^11]SST‐14
not cleaved (human plasma): more than 97% of intact peptide after 24 h

Compound: C[C@H](NC(=O)CN1CCN(CC(=O)O)CCN(CC(=O)O)CCN(CC(=O)O)CC1)C(=O)NCC(=O)N[C@H]1CSSC[C@@H](C(=O)O)NC(=O)[C@H](CO)NC(=O)[C@H]([C@@H](C)O)NC(=O)[C@H](Cc2ccccc2)NC[C@H]([C@@H](C)O)NC(=O)[C@H](CCCCN)NC(=O)[C@@H](Cc2c[nH]c3ccccc23)NC(=O)[C@H](Cc2ccccc2)NC(=O)[C@H](Cc2ccccc2)n2cc(nn2)[C@H](CC(N)=O)NC(=O)[C@H](CCCCN)NC1=O [[^111In]In‐XG1‐B, [DOTA,Asn^5‐Ψ[Tz]‐Phe^6,DTrp^8,Thr^10‐Ψ[NH]‐Phe^11]SST‐14, metal not drawn]
remaining at 24 h ([1]; human, plasma): > 97%

Compound: C[C@H](NC(=O)CN1CCN(CC(=O)O)CCN(CC(=O)O)CCN(CC(=O)O)CC1)C(=O)NCC(=O)N[C@H]1CSSC[C@@H](C(=O)O)NC(=O)[C@H](CO)NC(=O)[C@H]([C@@H](C)O)NC(=O)[C@H](Cc2ccccc2)N(C)C(=O)[C@H]([C@@H](C)O)NC(=O)[C@H](CCCCN)NC(=O)[C@@H](Cc2c[nH]c3ccccc23)NC(=O)[C@H](Cc2ccccc2)NC(=O)[C@H](Cc2ccccc2)n2cc(nn2)[C@H](CC(N)=O)NC(=O)[C@H](CCCCN)NC1=O [[^111In]In‐XG1‐C, [DOTA,Asn^5‐Ψ[Tz]‐Phe^6,DTrp^8,N‐Me‐Phe^11]SST‐14, metal not drawn] ({DOTA}-AGCK[X1]F[dW]KT[NMeF]TSC-OH; disulfide 3-13)
remaining at 4 h ([1]; human, plasma): 27%

total applied activity found at the cell membrane and internalized [2]: < 1%
Compound: [DOTA,Asn^5‐Ψ[Tz]‐Phe^6,DTrp^8,β‐Phe^11]SST‐14 [[^111In]In‐XG1‐A]

Compound: Ala^1 Gly^2 Cys^3 Lys^4 Asn^5 Phe^6 Phe^7 DTrp^8 Lys^9 Thr^10 Phe^11 Thr^12 Ser^13 Cys^14
cleaved bond [3]: Thr10-Phe11, major
